In this assay the test system is CA1 pyramidal neurons. Nature of the assay: Seizure-like events (SLE) triggered by tetanus stimulation of stratum radiatum in hippocampus, cell-attached recording. The format is cell-based. The conditions noted are these: for anticonvulsive activity / suppression of GABAAR-mediated depolarization during SLEs: 2 μM, in words. Here is the method:
FIG. 4. Cell-attached recording Tetanus in CA1 pyramidal neurons in presence of compound 51 (20 stimulus, 100 Hz, 4 consecutive traces superimposed), expressed in picoampere per second. The upper bars are representing the 100 Hz stimulation of stratum radiatum in control conditions, and the lower bars are representing 30 minutes after application of 2 μM of compound 51.
FIG. 5. Cell-attached recording Tetanus in CA1 pyramidal neurons in presence of compound 57 (20 stimulus, 100 Hz, 4 consecutive traces superimposed), expressed in picoampere per second. The upper bars are representing the 100 Hz stimulation of stratum radiatum in control conditions, and the lower bars are representing 30 minutes after application of 2 μM of compound 57.
FIG. 6. Post-tetanus frequency (normalized) in presence or not of 2 μM of compound 51 (withing 20 seconds window s after tetanus stimulation) (paired two-tailed t test: p=1*e^−4, n=5 cells). The error bars represent standard error of the mean.
FIG. 7. Post-tetanus frequency (normalized) in presence or not of 2 μM of compound 57 (withing 20 seconds window s after tetanus stimulation) (paired two-tailed t test: p=1*e^−4, n=5 cells). The error bars represent standard error of the mean.
Use of a NKCC1 inhibitor to block the activation of NKCC1 can reduce the [Cl^−]i, and thereby attenuate the excitatory GABAAR responses during epilepsy. Therefore, anticonvulsant effects of 51 on modulating the GABA polarity in acute seizure models was investigated. The seizure-like events in CA1 pyramidal neurons were triggered by tetanic stimulation of stratum radiatum in hippocampus by 51 (FIG. 4) and 57 (FIG. 5).

Structures are written as SMILES.

For the compound `CCCCNc1cc(C(=O)O)cc(S(=N)(=O)NC)c1Oc1ccccc1` (centres unmarked) [Compound 51, 3-(butylamino)-5-(methylaminosulfonimidoyl)-4-phenoxy-benzoic acid], the anticonvulsive activity entry was “potent anticonvulsive activity” and the “suppression of GABAAR-mediated depolarization during SLEs” value is listed as “potently suppressed”. The activity at 2 µM (Pyramidal neuron, 0.5 h, fraction of control, n=5, two-tailed paired t-test, p=5*e^−4, read-out: post-tetanus spike frequency, of control) stood at 27 ± 7%.
Regarding `CCCCNc1cc(C(=O)O)cc(S(=N)(=O)Nc2ccccc2)c1Oc1ccccc1` (centres unmarked) [Compound 57, 3-(anilinosulfonimidoyl)-5-(butylamino)-4-phenoxy-benzoic acid], the anticonvulsive activity entry was “potent anticonvulsive activity” and the “suppression of GABAAR-mediated depolarization during SLEs” value is recorded as “potently suppressed”.

The record behind these values is patent publication US20260374782A1, “NEW COMPOUNDS, PROCESSES FOR PREPARING THE SAME AND THEIR USE AS DRUGS” (B&A ONCOMEDICAL, priority 2022, published 2026).
